# Measurements taken from US8518884B2, “Methods for treating atrial or ventricular arrhythmias by administering a G-protein alpha inhibitor” (Northwestern University, priority 2008, dated 2013).
# Ends that are not written are not given here.
# Experiments:
# left atrium = assay: Functional studies in pacing-induced CHF and control canine subjects: left atrial ERPs under autonomic manipulation; assay type: in vivo
# Procedure: Canine subjects were divided into three groups. In group 1, CHF was induced by rapid ventricular pacing for 4 weeks (i.e. when the animals began to develop clinical heart failure. In group 2, pacing was performed for only 3 weeks. Group three were control canine subjects not subjected to rapid ventricular pacing. At the end of follow up period, high-density epicardial mapping was performed in the PVs, the PLA and the LAA. ERPs were obtained at multiple sites under the following conditions: a) baseline (BSL), b) left cervical vagal stimulation at 20 Hz (VS), c) beta-stimulation with isoproterenol (ISO), d) beta-blockade with propranolol (PROP) and e) beta-blockade+vagal stimulation (P+VS). VS caused significant mean ERP shortening in all three groups. […] PROP increased the VS effect on ERP in normal controls, but produced an attenuation of this effect in the CHF group (SEE FIG. 37). In this CHF model, after 4 weeks of pacing, an increased vagal effect on atrial refractoriness, an increased cumulative sympathetic effect, and a change in the sympatho-vagal interactions of the left atrium were observed. After 3 weeks of pacing, there is pronounced autonomic remodeling, with evidence of P as well S nerve upregulation in the PVs and left atrium. Both P and S upregulation are more pronounced in the PLA (and to a lesser extent in the PVs) than in the rest of the left atrium. While vagal responsiveness in the left atrium is unaltered at 3 weeks of pacing, it increases after 4 weeks of pacing. […] The autonomic remodeling becomes more pronounced with increasing duration of pacing. […] The increase in β1 binding is consistent with the increase in sympathetic innervation. […] The P upregulation noted in the left atrium in CHF is a compensatory response to S upregulation that occurs in response to CHF. […] However, since normal atria are more densely innervated with vagal fibers (than the ventricle) and also contain a significant amount of IKAch, the compensatory response is likely to be more vigorous in the atrium. The compensatory increase in vagal innervations, and resulting increase in IKAch, may contribute to increased AF substrate.
# M2R|Gαi/o interactions [1] = molecular target: T1, M2R|Gαi/o interactions (Canis lupus familiaris, UniProt A0A8I3N4M6); assay: Gαx minigenes in the PLA: vagal-induced ERP shortening, AF inducibility, AF duration and dominant frequency 3 days after delivery; assay type: in vivo, dog
# T1 construct: from tissue; host or cells: posterior left atrium of intact dogs (in vivo), 3 days after minigene injection and electroporation
# T1 sequence (A0A8I3N4M6 1-466): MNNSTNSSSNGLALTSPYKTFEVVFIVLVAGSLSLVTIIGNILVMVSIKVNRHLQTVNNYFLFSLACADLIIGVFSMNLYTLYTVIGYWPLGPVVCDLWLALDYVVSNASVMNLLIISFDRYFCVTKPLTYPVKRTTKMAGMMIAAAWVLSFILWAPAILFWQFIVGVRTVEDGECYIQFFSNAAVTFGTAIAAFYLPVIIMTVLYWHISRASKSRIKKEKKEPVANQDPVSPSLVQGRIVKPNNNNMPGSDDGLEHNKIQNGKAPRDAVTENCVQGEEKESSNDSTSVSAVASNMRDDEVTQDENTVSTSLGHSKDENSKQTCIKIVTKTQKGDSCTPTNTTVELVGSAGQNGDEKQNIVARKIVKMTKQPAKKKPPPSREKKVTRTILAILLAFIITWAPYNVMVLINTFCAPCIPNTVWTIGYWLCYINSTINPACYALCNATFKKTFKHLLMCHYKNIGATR
# Procedure: (§1) In a small number of pilot experiments (N=6), 1 mg of Gαi2ctp or GαRp minigene was injected subepicardially in the PLA (also see Results). In the remaining experiments, 15-20 mg of ct-Gαi2ctp (N=5), or 7-10 mg of Gαi2ctp+7-10 mg of Gαo1ctp (N=3), or GαRp (N=5) minigenes was injected in the PLA. Minigenes were made up to a volume of 4 ml and injected at multiple sites (6-8 equally spaced sites, 0.5-1 cm apart; a volume of approximately 0.5 ml was injected at each site) in the PLA so as to cover the entire area between the PVs. […] Immediately after gene injection, electroporation was performed at each site of injection as follows: two gold-plated, needle-style electrodes (10 mm length each) were placed at each gene injection site on the PLA, with an inter-electrode distance of 5 mm; electroporation with performed as previously described in the lung by Dean et al^14, with 8 pulses of is at […] (ECM 830, Harvard Bioscience, Holliston, Mass.). After minigene delivery, the chest was closed and the animal allowed to recover. Vagal stimulation and electrophysiological testing were not performed at baseline, in order to minimize damage to the vagus nerve.
# Baseline study: Three days after the initial study, the chest was re-opened. […] The PV plaque was placed circumferentially around the vein while the other two plaques were laid flat on the PLA and LAA epicardium. Effective refractory periods (ERPs) were obtained from 5, 6, and 4 sites on the PV, PLA, and LAA plaque, respectively, at baseline.
# Vagal stimulation: For vagal stimulation, the left cervical vagus nerve was isolated, a bipolar stainless steel electrode was attached to the nerve, and stimulation was performed at 20 Hz (15-20V, 2-8 ms) (Grass S44G, Astromed Inc, R1). A vagal response was defined as: 1) sinus node slowing by at least 25% or 2) PR prolongation by more than 25% or 2:1 AV block^13. ERP testing was performed in the presence and absence of VS.
# (§2) Atrial Fibrillation Inducibility: AF was defined as an atrial arrhythmia that was irregular in at least one of the recording electrodes. Regular atrial arrhythmias—e.g., atrial flutter and atrial tachycardia—were excluded from AF analysis. AF inducibility was measured as the inducibility index and duration of AF episodes after a single extrastimulus^8,15. As previously described, the inducibility index was defined as the number of AF episodes lasting more than 5 seconds induced by a single atrial extrastimulus divided by the total number of single atrial extrastimuli delivered to measure each ERP (at least 3 for each site)^8. The inducibility index was compared for each maneuver. Mean AF duration for each intervention was also assessed. All data was acquired by a 128-channel mapping system (Prucka Cardiolab, GE, WI) at a sampling rate of 977 Hz. All AF episodes induced during extrastimulus testing were stored for offline analysis. After all ERPs had been obtained, minigene injection was performed as described below.
# Offline Electrogram Analysis. Electrograms recorded during the maximum duration AF episodes obtained during extrastimulus testing were analyzed with dominant frequency (DF) analysis. DF is an estimation of activation rate calculated as the frequency with the most power in the power spectrum. The power spectrum is obtained from the Fast Fourier Transform of an electrogram after rectification and low pass filtering (20 Hz). These analyses were performed offline using Matlab (Mathworks, Natick, Mass.).
# (§3) Effective Refractory Periods. For each ERP, the pacing protocol was composed of a drive train (S1) of eight beats with a cycle length of 400 ms followed by an extrastimulus (S2). The S2 was decremented by 10 ms until loss of capture. […] Pacing was performed at an output current twice the threshold required for consistent capture of the tissue. The mean ERP was used as the representative ERP for each of the three sites as well as the entire left atrium.
# M2R|Gαi/o interactions [2] = molecular target: T1, M2R|Gαi/o interactions; assay: Gαx minigenes in the PLA: CCh-induced ERP shortening and AF 3 days after delivery; assay type: in vivo, dog
# Procedure: as §1
# CCh application: ERP shortening was assessed by direct application of CCh, a non-selective MR agonist, to the PLA. […] After each dose, ERP testing was performed in the PLA.
# as §2, §3
# Gαi = assay: cp-Gα peptide delivery to the PLA with electroporation/sonoporation: ERPs and AF inducibility with vagal stimulation; assay type: in vivo, canine
# Procedure: High-density epicardial mapping was performed in the PVs (2×2 electrodes), the PLA (7×3 electrodes) and the left atrial appendage (LAA) (7×3 electrodes) of canine subjects. Effective refractory periods (ERPs) were obtained at baseline and in response left cervical vagal stimulation (VS) (20 Hz). Cp-Gαi2 peptide (200-330 nM) was then applied topically to the epicardial aspect of the PLA in a canine subgroup. Cp-Gαi3 peptide (200-330 nM) was then applied topically to the epicardial aspect of the PLA of a second subgroup. Electroporation was performed after the application of peptide to enhance intracellular delivery of the peptide. ERPs were then re-measured in the presence and absence of VS.
# In canine subjects, high-density epicardial mapping was performed in the PVs (2×2 electrodes), the PLA (7×3 electrodes) and the left atrial appendage (LAA) (7×3 electrodes). Effective refractory periods (ERPs) were obtained at baseline and in response left cervical vagal stimulation (VS) (20 Hz). FLAG-tcp-Gα peptides (200 nM-3 μM of cp-Gαi1/2 (N=8 canine subjects), cp-Gαi3 (N=4 canine subjects), or random-sequence cp-GαoR peptide (N=3 canine subjects) were injected into the PLA epicardium of the canine subjects followed by either sonoporation or electroporation. In a subgroup of the canine subjects, sonoporation or electroporation alone was performed without introduction of cp-Gαi peptide. ERPs were then re-measured in the presence and absence of VS. In a separate set of control animals, ERPs were measured before and after the administration of systemic autonomic blockade with propranolol (0.2 mg/kg)+atropine (0.04 mg/kg).
# [3] = 200 nM-3 μM injected into PLA + sono/electroporation
molecule,measurement,setting,value
"CC(C)NCC(O)COc1cccc2ccccc12 (stereo not drawn) [PROP, propranolol]",effect on ERPs,left atrium; CHF canine subjects,ERP lengthening
same,effect on the VS effect on ERP,left atrium; CHF group,attenuation
same,effect on ERPs,left atrium; control canine subjects,significant shortening of ERPs
same,effect on the VS effect on ERP,left atrium; normal controls,increased
IKNNLKDCGLF [Gαi2ctp],vagal-induced ERP shortening in the PLA,"M2R|Gαi/o interactions [1]; 3 days after minigene delivery, mean±SE",19.5 ± 5.0 ms
same,vagal-induced ERP shortening in the PLA,"M2R|Gαi/o interactions [1]; compared to GαRcpt, FIG. 29A",attenuated
same,vagal-induced ERP shortening in the PV and LAA,M2R|Gαi/o interactions [1]; compared to GαRp dogs,no significant difference
same,AF inducibility in response to VS,"M2R|Gαi/o interactions [1]; inducibility index, vs. GαRp dogs",significantly less
same,VS-induced increase in AF dominant frequency (DF),M2R|Gαi/o interactions [1]; vs. GαRp dogs,significantly less
same,mean AF duration in response to VS,M2R|Gαi/o interactions [1]; vs. GαRp dogs,significantly less
same,CCh-induced ERP shortening in the PLA,"M2R|Gαi/o interactions [2]; 3 μM, 10 μM CCh, compared to GαRp dogs",significantly less
same,CCh-induced ERP shortening in the PLA,"M2R|Gαi/o interactions [2]; 30 μM CCh, compared to GαRp dogs",no significant difference
same,CCh-induced ERP shortening in the PLA,"M2R|Gαi/o interactions [2]; CCh 3, 10 and 30 μM, compared to baseline ERP",only at 30 μM CCh
same,AF duration in response to CCh,M2R|Gαi/o interactions [2]; vs. GαRp dogs,significantly less
same,AF inducibility in response to CCh,M2R|Gαi/o interactions [2]; vs. GαRp dogs,significantly less
"cp-Gαi3: cell-penetrating poly-arginine tagged Gαi3 C-terminal peptide (IKNNLKECGLY; also: cell-penetrating poly-arginine tag, length and site not given here)",VS-induced ERP shortening in the LAA,Gαi; [3],reduced
same,VS-induced ERP shortening in the PLA,Gαi; [3],eliminated
same,VS induced ERP shortening,"Gαi; 200-330 nM topical to PLA + electroporation, PLA, PV and LAA",significantly attenuated
